Laboratory results as given in patent publication US20220289732A1, “HETEROCYCLIC WDR5 INHIBITORS AS ANTI-CANCER COMPOUNDS” (NOVARTIS AG, priority 2019, published 2022).
Where two headings read alike, the source gives them in different places.

Key:
[1] = biological target: wild type MLL1 four-member complex (MLL1-4C) (Homo sapiens, UniProt P61964); assay: MLL1 LC-MS assay (SAH production); type: biochemical; details: read-out: (b) MLL LCMS Peptide Val.v.1 Qualified AC50
How it was run: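 MLL1-4C (30 nM final) was preincubated 20 min with compound (3-fold dilutions, 8 or 12 points) and SAM in Tris-HCl pH 8.0 buffer. H3K4me0 peptide (histone H3[1-21]-biotin) was then added, giving final 2.5 μM SAM and 10 μM substrate, and reactions ran 120 min at rt. After TFA/d4-SAH quench, SAH was quantified by LC-MS/MS and IC50 fitted from control-normalised activity.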

[2] = biological target: WDR5 (Homo sapiens, UniProt P61964); assay: WDR5 HTRF binding assay; details: read-out: (a) WDR5 HTRF Pep Val v.1[Inhibitor/IC50]Qualified AC50
How it was run: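 6 nM WDR5 and 20 nM biotin-MLL1 WIN peptide (3762-3773) were incubated with compound (12-point, 3-fold dilutions) in pH 7.5 Hepes/NaCl/DTT buffer for 20 min at rt. Streptavidin-APC plus anti-His-Eu were then added for 1 hr, with HTRF read at 665/615. IC50 was fit from control-normalized activity; the counter assay used 15 nM biotin-PEG-His peptide.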

[3] = tested on: MV4-11 cells; assay: MV4-11 6-day cell growth CTG (CellTiter-Glo) assay; type: cell-based; details: 6 days, read-out: (c) MLL/WDR5 cell proliferation assay//MLL/WDR5 proliferation MV4:11 Qualified AC50
How it was run: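 Exponentially growing MV4-11 AML cells (RPMI 1640, 10% FBS) seeded at 300 cells/well with 12-point 1:3 compound dilutions, top final concentration 50 μM. Viability read by CellTiter-Glo luminescence after 6 days at 37° C; % inhibition vs DMSO-only wells fitted to dose-response for IC50.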

AC50 [1] | IC50 [2] | SMILES | AC50 ([3]; Homo sapiens, MV4-11, 144 h) | AC50 [3]
10 to 1000 nM | 10 to 1000 nM | CCOc1cc([C@H](C)N2CCc3c(cc(CCN4C[C@@H](OC)[C@H]4C)cc3-c3ccc(F)nc3C)C2=O)ncc1C#N [Example 244] | 10 to 1000 nM | 
10 to 1000 nM | 10 to 1000 nM | CCOc1cc([C@H](C)N2CCc3c(CN4CCOCC4)cc(Cn4ccnc4NC)cc3C2=O)ncc1F [Example 27, (S)-2-(1-(4-ethoxy-5-fluoropyridin-2-yl)ethyl)-7-((2-(methylamino)-1H-imidazol-1-yl)methyl)-5-(morpholinomethyl)-3,4-dihydroisoquinolin-1(2H)-one] | 10 to 1000 nM | 
10 to 1000 nM | 10 to 1000 nM | CNc1nccn1Cc1cc2c(c(N3CC(OC)C3)c1)CCN([C@@H](C)c1cc(OC)c(F)cn1)C2=O (single isomer, unassigned) [Example 90] | 10 to 1000 nM | 
10 to 1000 nM | 10 to 1000 nM | CCOc1cc([C@H](C)N2CCc3c(CN4CCOCC4)cc(Cn4ccnc4NC)cc3C2=O)ncc1Cl [Example 23, (S)-2-(1-(5-chloro-4-ethoxypyridin-2-yl)ethyl)-7-((2-(methylamino)-1H-imidazol-1-yl)methyl)-5-(morpholinomethyl)-3,4-dihydroisoquinolin-1(2H)-one] | 10 to 1000 nM | 
10 to 1000 nM | < 10 nM | CCOc1cc([C@H](C)N2CCc3c(cc(CCN(C)CC)cc3-c3cc(N)ncc3C)C2=O)ncc1C#N [Example 162, (S)-6-(1-(5-(2-amino-5-methylpyridin-4-yl)-7-(2-(ethyl(methyl)amino)ethyl)-1-oxo-3,4-dihydroisoquinolin-2(1H)-yl)ethyl)-4-ethoxynicotinonitrile] | 10 to 1000 nM | 
10 to 1000 nM | 10 to 1000 nM | CCOc1cc(CN2CCc3c(cc(CCN(C)CC)cc3-c3cn(C)c(=O)cc3C(F)(F)F)C2=O)ncc1C#N [Example 196, 4-ethoxy-6-((7-(2-(ethyl(methyl)amino)ethyl)-5-(1-methyl-6-oxo-4-(trifluoromethyl)-1,6-dihydropyridin-3-yl)-1-oxo-3,4-dihydroisoquinolin-2(1H)-yl)methyl)nicotinonitrile] | 10 to 1000 nM | 
10 to 1000 nM | < 10 nM | CCOc1cc(C(C)N2CCc3c(cc(CCN(C)CC)cc3-c3cc(OC)ncc3Cl)C2=O)ncc1C#N (stereo not drawn) [Example 136, 6-(1-(5-(5-chloro-2-methoxypyridin-4-yl)-7-(2-(ethyl(methyl)amino)ethyl)-1-oxo-3,4-dihydroisoquinolin-2(1H)-yl)ethyl)-4-ethoxynicotinonitrile] | 10 to 1000 nM | 
10 to 1000 nM | < 10 nM | CCOc1cc(C(C)N2CCc3c(cc(CCN(C)CCF)cc3-c3cn(C)c(=O)cc3Cl)C2=O)ncc1C#N (stereo not drawn) [Example 237] | 10 to 1000 nM | 
10 to 1000 nM | 10 to 1000 nM | CCOc1cc([C@H](C)N2CCc3c(cc(CCN(C)CC)cc3N3CC[C@H](O)C3)C2=O)ncc1C#N [Example 210] | 1000 to 25000 nM | 
10 to 1000 nM | < 10 nM | CCOc1cc(CN2CCc3c(cc(CCN(C)CC)cc3-c3cc(C)cnc3C)C2=O)ncc1C#N [Example 140, 6-((5-(2,5-dimethylpyridin-3-yl)-7-(2-(ethyl(methyl)amino)ethyl)-1-oxo-3,4-dihydroisoquinolin-2(1H)-yl)methyl)-4-ethoxynicotinonitrile] | 10 to 1000 nM | 
10 to 1000 nM | < 10 nM | CCOc1cc([C@H](C)N2CCc3c(cc(CCN(C)CC(C)O)cc3-c3cn(C)c(=O)cc3Cl)C2=O)ncc1C#N (stereo partly drawn) [Example 239] | 10 to 1000 nM | 
10 to 1000 nM | 10 to 1000 nM | CCOc1cc([C@H](C)N2CCc3c(CN4CC(F)C4)cc(Cn4ccnc4NC)cc3C2=O)ncc1F [Example 39, (S)-2-(1-(4-ethoxy-5-fluoropyridin-2-yl)ethyl)-5-((3-fluoroazetidin-1-yl)methyl)-7-((2-(methylamino)-1H-imidazol-1-yl)methyl)-3,4-dihydroisoquinolin-1(2H)-one] | 10 to 1000 nM | 
10 to 1000 nM | 10 to 1000 nM | CNc1nccn1Cc1cc(-c2cc(CO)cnc2Cl)c2ccn(Cc3ccc(F)c(OC)c3)c(=O)c2c1 [Example 101, 5-(2-chloro-5-(hydroxymethyl)pyridin-3-yl)-2-(4-fluoro-3-methoxybenzyl)-7-((2-(methylamino)-1H-imidazol-1-yl)methyl)isoquinolin-1(2H)-one] | 10 to 1000 nM | 
10 to 1000 nM | < 10 nM | CCOc1cc([C@H](C)N2CCc3c(cc(CCN(C)CC)cc3-c3cc(C)nnc3C)C2=O)ncc1C#N [Example 173, (S)-6-(1-(5-(3,6-dimethylpyridazin-4-yl)-7-(2-(ethyl(methyl)amino)ethyl)-1-oxo-3,4-dihydroisoquinolin-2(1H)-yl)ethyl)-4-ethoxynicotinonitrile] | 10 to 1000 nM | 
10 to 1000 nM | < 10 nM | CCOc1cc([C@H](C)N2CCc3c(cc(Cn4cnc(C)c4)cc3-c3cn(C)nc3C)C2=O)ncc1C#N [Example 276] | 10 to 1000 nM | 
10 to 1000 nM | 10 to 1000 nM | CNc1nccn1Cc1cc2c(c(-c3cc(CO)cnc3Cl)c1)CCN(Cc1cc(OC)c(F)cc1F)C2=O [Example 61, 5-(2-chloro-5-(hydroxymethyl)pyridin-3-yl)-2-(2,4-difluoro-5-methoxybenzyl)-7-((2-(methylamino)-1H-imidazol-1-yl)methyl)-3,4-dihydroisoquinolin-1(2H)-one] | 10 to 1000 nM | 
10 to 1000 nM | < 10 nM | CCOc1cc([C@H](C)N2CCc3c(cc(CCN(C)CC)cc3-c3cn(CC)nc3C)C2=O)ncc1C#N [Example 127, (S)-4-ethoxy-6-(1-(7-(2-(ethyl(methyl)amino)ethyl)-5-(1-ethyl-3-methyl-1H-pyrazol-4-yl)-1-oxo-3,4-dihydroisoquinolin-2(1H)-yl)ethyl)nicotinonitrile] | 10 to 1000 nM | 
10 to 1000 nM | < 10 nM | CCOc1cc([C@H](C)N2CCc3c(cc(CCN(C)CC)cc3-c3cc(N)cnc3C)C2=O)ncc1C#N [Example 187, (S)-6-(1-(5-(5-amino-2-methylpyridin-3-yl)-7-(2-(ethyl(methyl)amino)ethyl)-1-oxo-3,4-dihydroisoquinolin-2(1H)-yl)ethyl)-4-ethoxynicotinonitrile] | 10 to 1000 nM | 
10 to 1000 nM | 10 to 1000 nM | CCOc1cc(C(C)N2CCc3c(cc(CCN(C)CC)cc3-c3cc(F)ncc3C)C2=O)ncc1C#N (stereo not drawn) [Example 143, 4-ethoxy-6-(1-(7-(2-(ethyl(methyl)amino)ethyl)-5-(2-fluoro-5-methylpyridin-4-yl)-1-oxo-3,4-dihydroisoquinolin-2(1H)-yl)ethyl)nicotinonitrile] | 10 to 1000 nM | 
10 to 1000 nM | < 10 nM | CCOc1cc([C@H](C)N2CCc3c(cc(CCN(C)CCO)cc3-c3cn(C)c(=O)cc3Cl)C2=O)ncc1C#N [Example 238] | 10 to 1000 nM | 
10 to 1000 nM | 10 to 1000 nM | CCOc1cc([C@H](C)N2CCc3ccc(Cn4ccnc4NC)cc3C2=O)cnc1Cl [Example 95, (S)-2-(1-(6-chloro-5-ethoxypyridin-3-yl)ethyl)-7-((2-(methylamino)-1H-imidazol-1-yl)methyl)-3,4-dihydroisoquinolin-1(2H)-one] | 10 to 1000 nM | 
10 to 1000 nM | 10 to 1000 nM | CCOc1cc(C(C)N2CCc3c(cc(CCN(C)CC)cc3-c3cccnc3CC)C2=O)ncc1C#N (stereo not drawn) [Example 151, 4-ethoxy-6-(1-(7-(2-(ethyl(methyl)amino)ethyl)-5-(2-ethylpyridin-3-yl)-1-oxo-3,4-dihydroisoquinolin-2(1H)-yl)ethyl)nicotinonitrile] | 10 to 1000 nM | 
10 to 1000 nM | < 10 nM | CCOc1cc(C(C)N2CCc3c(cc(Cn4ccnc4C)cc3-c3cn(C)nc3C)C2=O)ncc1C#N (racemic) [Example 262, 6-(1-(5-(1,3-dimethyl-1H-pyrazol-4-yl)-7-((2-methyl-1H-imidazol-1-yl)methyl)-1-oxo-3,4-dihydroisoquinolin-2(1H)-yl)ethyl)-4-ethoxynicotinonitrile] |  | < 10 nM
10 to 1000 nM | 10 to 1000 nM | CNc1nccn1Cc1cc(-c2cc(CO)cnc2Cl)c2ccn([C@H](C)c3cccc(OC)c3)c(=O)c2c1 [Example 103, (R)-5-(2-chloro-5-(hydroxymethyl)pyridin-3-yl)-2-(1-(3-methoxyphenyl)ethyl)-7-((2-(methylamino)-1H-imidazol-1-yl)methyl)isoquinolin-1(2H)-one] | 10 to 1000 nM | 
